Source: patent US20260035365A1, “1H-PYRROLO[3,2-B]PYRIDINE DERIVATIVES AS IRREVERSIBLE INHIBITORS OF MUTANT EGFR FOR THE TREATMENT OF CANCER” (Bayer Aktiengesellschaft, priority 2022, published 2026)

Columns and labels:
[1] = target: mutEGFR (D770_N771insNPG, T790); test: mutEGFR (D770_N771insNPG, T790) kinase assay; assay type: biochemical, human
[2] = target: mutEGFR (D770_N771insSVD) (Homo sapiens, UniProt P00533, INS767SVD); test: Exon20-mutant-EGFR (D770_N771insSVD) TR-FRET kinase assay; assay type: biochemical; details: 2 mM ATP, 15 min preincubation
In short: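 GST-fused human EGFR fragment R669-A1210 carrying the SVD insertion, Sf9-expressed, typically 15 pg/μl, was preincubated with compound for 15 min at 22° C in pH 7.0 Hepes/MgCl2 buffer. Phosphorylation was read by HTRF (665/620 nm ratio), normalised to no-inhibitor and no-enzyme controls.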

[3] = test system: BA/F3 (EGFR D770_N771 insSVD T790M) cells; test: Ba/F3 cell survival assay (Cell Titer-Glo), EGFR-insSVD T790M; assay type: cell-based; details: Ba/F3 EGFR-D770-N771ins_SVD; 48 h, without IL-3, with EGF
Experimental: 293T cells from ATCC were transfected with pBABEpuro expression constructs for WT EGFR or EGFR-insSVD, or EGFR-insSVD T790M, and pCL-Eco packaging vector using Fugene-6 transfection reagent from Promega. Plates were incubated at 37° C. for 48 h. Retrovirus was harvested by filtering the media supernatant through a 0.45 μm filter.
Ba/F3 cells purchased from DSMZ were grown in RPMI+10% FBS+10 ng/mL IL-3 and infected with filtered retroviral supernatant at a 1:2 dilution. Polybrene was added to a concentration of 8 μg/mL, plates were spun for 90 min, and incubated for 16 h at 37° C. 2 μg/mL puromycin was added to the infected cells 24 h after infection and cells were continually grown in the presence of puromycin and 10 ng/mL IL-3. Following stably expressing Ba/F3 cell lines were generated: Ba/F3-EGFR-WT, Ba/F3-EGFR-insSVD, Ba/F3-EGFR-insSVD T790M, (Ba/F3-vector-control).
For cell survival assays, Ba/F3 cells were grown to a density of 1-2 million cells per mL, spun down and resuspended in media without IL-3, and replated at a concentration of 200,000-500,000 cells per mL. The cells ectopically expressing WT EGFR, EGFR-insSVD, or EGFR-insSVD T790M were plated with 10 ng/mL Millipore Culture grade EGF. The cells ectopically expressing pBABEpuro empty vector were plated with 10 ng/mL IL-3.
2 days later, cells were plated in 50 μL in a 384 well plate at a concentration of 4000 cells per well for cells assayed in the absence of IL-3 and 2000 cells per well for cells assayed in the presence of IL-3. 100 nL of compound was added to each well using a 100 nL pin head, and plates were incubated at 37° C. for 48 h.
Cell viability was measured by adding 20 μL of Cell Titer-Glo Luminescent Cell Viability Reagent diluted 1:3 in PBS. Plates were sealed with Perkin Elmer Top-Seal, inverted several times to mix, and immediately centrifuged at 1000 rpm for 2 min. Plates were incubated in low light conditions for 8-10 min and luminescence was measured.

BA/F3 (insSVD) cells = test: Ba/F3 cell survival assay (Cell Titer-Glo), EGFR-insSVD; assay type: cell-based; details: Mus musculus, BaF3, 48 h, without IL-3, with EGF
In short: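 Ba/F3 cells stably expressing EGFR-insSVD or insSVD T790M via retrovirus (puromycin-selected), switched from IL-3 to 10 ng/mL EGF for 2 days, then plated at 4000 cells/well. Compound added by 100 nL pin transfer; 48 h at 37° C. Viability by CellTiter-Glo luminescence.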

Sequence of mutEGFR (D770_N771insNPG, T790) (P00533 with tags, fused parts or gaps INS770NPG limits assumed): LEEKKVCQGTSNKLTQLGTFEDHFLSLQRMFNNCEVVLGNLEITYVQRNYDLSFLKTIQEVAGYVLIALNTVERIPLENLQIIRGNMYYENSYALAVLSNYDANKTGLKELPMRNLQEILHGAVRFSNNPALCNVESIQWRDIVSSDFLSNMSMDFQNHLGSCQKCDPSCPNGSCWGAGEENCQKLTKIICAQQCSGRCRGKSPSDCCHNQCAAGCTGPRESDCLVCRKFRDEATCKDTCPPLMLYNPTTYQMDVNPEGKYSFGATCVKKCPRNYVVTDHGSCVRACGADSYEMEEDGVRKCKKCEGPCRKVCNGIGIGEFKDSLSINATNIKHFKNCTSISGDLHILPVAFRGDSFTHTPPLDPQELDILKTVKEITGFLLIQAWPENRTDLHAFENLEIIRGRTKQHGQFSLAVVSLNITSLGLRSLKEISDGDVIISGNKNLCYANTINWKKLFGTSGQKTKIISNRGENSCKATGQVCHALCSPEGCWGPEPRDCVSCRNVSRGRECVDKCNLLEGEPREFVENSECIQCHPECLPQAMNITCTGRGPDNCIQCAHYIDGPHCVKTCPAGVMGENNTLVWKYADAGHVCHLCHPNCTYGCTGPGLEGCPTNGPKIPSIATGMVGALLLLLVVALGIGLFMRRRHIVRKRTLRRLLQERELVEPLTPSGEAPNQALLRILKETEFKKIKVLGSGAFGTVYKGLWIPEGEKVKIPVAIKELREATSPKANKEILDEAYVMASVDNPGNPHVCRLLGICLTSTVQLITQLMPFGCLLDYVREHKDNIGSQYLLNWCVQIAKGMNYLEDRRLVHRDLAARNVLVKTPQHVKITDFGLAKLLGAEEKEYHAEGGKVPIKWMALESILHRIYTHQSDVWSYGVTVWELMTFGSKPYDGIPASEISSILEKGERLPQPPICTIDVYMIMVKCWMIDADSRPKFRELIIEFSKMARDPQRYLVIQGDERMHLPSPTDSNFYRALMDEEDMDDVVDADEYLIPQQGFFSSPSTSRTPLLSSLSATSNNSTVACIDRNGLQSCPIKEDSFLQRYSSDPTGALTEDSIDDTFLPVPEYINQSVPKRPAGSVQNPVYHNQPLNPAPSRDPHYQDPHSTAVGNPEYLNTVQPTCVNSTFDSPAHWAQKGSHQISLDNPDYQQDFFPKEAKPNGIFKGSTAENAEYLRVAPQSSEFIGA
Sequence of mutEGFR (D770_N771insSVD) (P00533 with tags, fused parts or gaps INS767SVD limits assumed): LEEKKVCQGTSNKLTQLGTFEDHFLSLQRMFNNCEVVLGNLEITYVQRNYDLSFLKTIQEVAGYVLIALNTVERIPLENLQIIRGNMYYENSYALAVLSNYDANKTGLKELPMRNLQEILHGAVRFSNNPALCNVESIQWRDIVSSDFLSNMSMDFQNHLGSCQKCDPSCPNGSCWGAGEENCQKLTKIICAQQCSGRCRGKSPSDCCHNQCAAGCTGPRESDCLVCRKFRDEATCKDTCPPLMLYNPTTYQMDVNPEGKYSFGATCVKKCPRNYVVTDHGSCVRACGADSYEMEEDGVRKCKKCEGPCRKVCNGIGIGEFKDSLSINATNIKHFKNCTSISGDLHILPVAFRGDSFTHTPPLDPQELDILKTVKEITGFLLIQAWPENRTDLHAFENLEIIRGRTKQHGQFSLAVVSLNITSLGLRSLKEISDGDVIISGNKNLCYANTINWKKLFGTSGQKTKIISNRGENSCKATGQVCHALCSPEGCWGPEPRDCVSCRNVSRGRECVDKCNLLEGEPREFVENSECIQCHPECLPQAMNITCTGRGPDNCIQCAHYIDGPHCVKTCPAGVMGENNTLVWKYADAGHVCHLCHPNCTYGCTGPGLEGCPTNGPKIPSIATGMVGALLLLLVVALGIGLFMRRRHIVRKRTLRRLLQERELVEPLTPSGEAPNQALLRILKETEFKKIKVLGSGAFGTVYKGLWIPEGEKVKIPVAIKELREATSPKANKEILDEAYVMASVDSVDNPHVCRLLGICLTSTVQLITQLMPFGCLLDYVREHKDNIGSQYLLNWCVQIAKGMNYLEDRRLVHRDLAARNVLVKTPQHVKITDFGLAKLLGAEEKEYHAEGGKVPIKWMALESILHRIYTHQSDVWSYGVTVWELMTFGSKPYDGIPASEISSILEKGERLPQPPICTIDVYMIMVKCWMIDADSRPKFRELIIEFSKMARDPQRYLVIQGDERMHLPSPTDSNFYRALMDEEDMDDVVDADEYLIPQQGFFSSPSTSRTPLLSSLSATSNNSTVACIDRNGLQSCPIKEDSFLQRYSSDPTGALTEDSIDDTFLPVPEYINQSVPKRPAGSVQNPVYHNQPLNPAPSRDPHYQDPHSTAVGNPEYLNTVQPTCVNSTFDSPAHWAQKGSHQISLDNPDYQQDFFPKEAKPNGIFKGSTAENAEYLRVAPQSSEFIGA

C=CC(=O)NCCCOc1cnccc1-c1[nH]c2cccnc2c1-c1ccccc1 [Example 5, N-(3-{[4-(3-phenyl-1H-pyrrolo[3,2-b]pyridin-2-yl)pyridin-3-yl]oxy}propyl)prop-2-enamide]
IC50 [1]: > 20000 nM
IC50 [2]: 11300 nM
IC50 [3]: 9980 nM
IC50 (BA/F3 (insSVD) cells): 9980 nM

C=CC(=O)N(CC)CCOc1cnccc1-c1[nH]c2cccnc2c1-c1ccccc1 [Example 32, N-ethyl-N-(2-{[4-(3-phenyl-1H-pyrrolo[3,2-b]pyridin-2-yl)pyridin-3-yl]oxy}ethyl)prop-2-enamide]
IC50 [1]: 29.9 nM
IC50 [2]: 15.1 nM
IC50 [3]: 9650 nM
IC50 (BA/F3 (insSVD) cells): 364 nM

CN(C)C/C=C/C(=O)N(C)CCOc1cnccc1-c1[nH]c2cccnc2c1-c1ccccc1 [Example 26, (2E)-4-(dimethylamino)-N-methyl-N-(2-{[4-(3-phenyl-1H-pyrrolo[3,2-b]pyridin-2-yl)pyridin-3-yl]oxy}ethyl)but-2-enamide]
IC50 [1]: 333 nM
IC50 [2]: 65.9 nM
IC50 [3]: 9980 nM
IC50 (BA/F3 (insSVD) cells): 1530 nM

C=CS(=O)(=O)N1C[C@@H](C)C[C@H]1COc1cnccc1-c1[nH]c2cccnc2c1-c1ccccc1 [Example 111, 2-(3-{[(2S,4S)-1-(ethenesulfonyl)-4-methylpyrrolidin-2-yl]methoxy}pyridin-4-yl)-3-phenyl-1H-pyrrolo[3,2-b]pyridine]
IC50 [1]: 0.33 nM
IC50 [2]: 0.135 nM
IC50 [3]: 77.7 nM
IC50 (BA/F3 (insSVD) cells): 10.9 nM

C=CC(=O)NCCOc1cnccc1-c1[nH]c2cccnc2c1-c1ccc(F)cc1 [Example 1, N-[2-({4-[3-(4-fluorophenyl)-1H-pyrrolo[3,2-b]pyridin-2-yl]pyridin-3-yl}oxy)ethyl]prop-2-enamide]
IC50 [1]: 606 nM
IC50 [2]: 414 nM
IC50 [3]: 9980 nM
IC50 (BA/F3 (insSVD) cells): 4470 nM

C=CS(=O)(=O)N(CC)CCOc1cnccc1-c1[nH]c2cccnc2c1-c1ccccc1 [Example 33, N-ethyl-N-(2-{[4-(3-phenyl-1H-pyrrolo[3,2-b]pyridin-2-yl)pyridin-3-yl]oxy}ethyl)ethenesulfonamide]
IC50 [1]: 1.92 nM
IC50 [2]: 0.357 nM
IC50 [3]: 253 nM
IC50 (BA/F3 (insSVD) cells): 30.7 nM

C=CS(=O)(=O)N(C)CCOc1cnccc1-c1[nH]c2cccnc2c1-c1cccc(Cl)c1 [Example 29, N-[2-({4-[3-(3-chlorophenyl)-1H-pyrrolo[3,2-b]pyridin-2-yl]pyridin-3-yl}oxy)ethyl]-N-methylethenesulfonamide]
IC50 [1]: 0.801 nM
IC50 [2]: 0.349 nM
IC50 [3]: 3130 nM
IC50 (BA/F3 (insSVD) cells): 52.4 nM

C=CC(=O)N1CCC[C@H]1COc1cnccc1-c1[nH]c2cccnc2c1-c1cc(Cl)ccc1F [Example 42, 1-{(2S)-2-[({4-[3-(5-chloro-2-fluorophenyl)-1H-pyrrolo[3,2-b]pyridin-2-yl]pyridin-3-yl}oxy)methyl]pyrrolidin-1-yl}prop-2-en-1-one]
IC50 [1]: 2.84 nM
IC50 [2]: 1.11 nM
IC50 [3]: 3640 nM
IC50 (BA/F3 (insSVD) cells): 44.7 nM

C=CC(=O)N1CCC[C@@H]1COc1cnccc1-c1[nH]c2cccnc2c1-c1ccccc1 [Example 35, 1-[(2R)-2-({[4-(3-phenyl-1H-pyrrolo[3,2-b]pyridin-2-yl)pyridin-3-yl]oxy}methyl)pyrrolidin-1-yl]prop-2-en-1-one]
IC50 [1]: 349 nM
IC50 [2]: 53.6 nM
IC50 [3]: 9980 nM
IC50 (BA/F3 (insSVD) cells): 1400 nM

C=CC(=O)N(C)CCOc1cnccc1-c1[nH]c2cccnc2c1-c1cc(Cl)cc(Cl)c1 [Example 31, N-[2-({4-[3-(3,5-dichlorophenyl)-1H-pyrrolo[3,2-b]pyridin-2-yl]pyridin-3-yl}oxy)ethyl]-N-methylprop-2-enamide]
IC50 [1]: 391 nM
IC50 [2]: 931 nM
IC50 [3]: 9980 nM
IC50 (BA/F3 (insSVD) cells): 5530 nM

C=CC(=O)N1CCC[C@H]1COc1cnccc1-c1[nH]c2cccnc2c1-c1cccc(C(F)(F)F)c1 [Example 39, 1-[(2S)-2-{[(4-{3-[3-(trifluoromethyl)phenyl]-1H-pyrrolo[3,2-b]pyridin-2-yl}pyridin-3-yl)oxy]methyl}pyrrolidin-1-yl]prop-2-en-1-one]
IC50 [1]: 5.22 nM
IC50 [2]: 1.19 nM
IC50 [3]: 5400 nM
IC50 (BA/F3 (insSVD) cells): 91.4 nM

C=CC(=O)N1CCC[C@H]1COc1cnccc1-c1[nH]c2cccnc2c1-c1cccc(Cl)c1 [Example 41, 1-{(2S)-2-[({4-[3-(3-chlorophenyl)-1H-pyrrolo[3,2-b]pyridin-2-yl]pyridin-3-yl}oxy)methyl]pyrrolidin-1-yl}prop-2-en-1-one]
IC50 [1]: 0.988 nM
IC50 [2]: 0.319 nM
IC50 [3]: 782 nM
IC50 (BA/F3 (insSVD) cells): 25.9 nM

C#CC(=O)N(C)CCOc1cnccc1-c1[nH]c2cccnc2c1-c1ccccc1 [Example 27, N-methyl-N-(2-{[4-(3-phenyl-1H-pyrrolo[3,2-b]pyridin-2-yl)pyridin-3-yl]oxy}ethyl)prop-2-ynamide]
IC50 [1]: 69.8 nM
IC50 [2]: 19.7 nM
IC50 [3]: 8410 nM
IC50 (BA/F3 (insSVD) cells): 532 nM

C=CC(=O)N(C)CCOc1cnccc1-c1[nH]c2cccnc2c1-c1ccc(Cl)c(C(=O)OC)c1 [Example 13, Methyl 2-chloro-5-[2-(3-{2-[methyl(prop-2-enoyl)amino]ethoxy}pyridin-4-yl)-1H-pyrrolo[3,2-b]pyridin-3-yl]benzoate]
IC50 [1]: 1390 nM
IC50 [2]: 720 nM
IC50 [3]: 9980 nM
IC50 (BA/F3 (insSVD) cells): 6190 nM

C=CC(=O)N(C)CCOc1cnccc1-c1[nH]c2cc(F)cnc2c1-c1ccccc1 [Example 7, N-(2-{[4-(6-fluoro-3-phenyl-1H-pyrrolo[3,2-b]pyridin-2-yl)pyridin-3-yl]oxy}ethyl)-N-methylprop-2-enamide]
IC50 [1]: 316 nM
IC50 [2]: 147 nM
IC50 [3]: 6990 nM
IC50 (BA/F3 (insSVD) cells): 4150 nM

C=CC(=O)N(C)CCOc1cnccc1-c1[nH]c2cccnc2c1-c1ccccc1OC [Example 17, N-[2-({4-[3-(2-methoxyphenyl)-1H-pyrrolo[3,2-b]pyridin-2-yl]pyridin-3-yl}oxy)ethyl]-N-methylprop-2-enamide]
IC50 [1]: 1700 nM
IC50 [2]: 569 nM
IC50 [3]: 9980 nM
IC50 (BA/F3 (insSVD) cells): 8160 nM

C=CC(=O)N(C)CCOc1cnccc1-c1[nH]c2cccnc2c1-c1cccc(C)c1 [Example 9, N-methyl-N-[2-({4-[3-(3-methylphenyl)-1H-pyrrolo[3,2-b]pyridin-2-yl]pyridin-3-yl}oxy)ethyl]prop-2-enamide]
IC50 [1]: 13.5 nM
IC50 [2]: 6.01 nM
IC50 [3]: 8720 nM
IC50 (BA/F3 (insSVD) cells): 293 nM

C=CC(=O)N(C)CCOc1cnccc1-c1[nH]c2cccnc2c1-c1cccc(F)c1 [Example 14, N-[2-({4-[3-(3-fluorophenyl)-1H-pyrrolo[3,2-b]pyridin-2-yl]pyridin-3-yl}oxy)ethyl]-N-methylprop-2-enamide]
IC50 [1]: 46.3 nM
IC50 [2]: 16.4 nM
IC50 [3]: 9980 nM
IC50 (BA/F3 (insSVD) cells): 833 nM

C=CC(=O)N(C)CCCOc1cnccc1-c1[nH]c2cccnc2c1-c1ccccc1 [Example 3, N-methyl-N-(3-{[4-(3-phenyl-1H-pyrrolo[3,2-b]pyridin-2-yl)pyridin-3-yl]oxy}propyl)prop-2-enamide]
IC50 [1]: 3410 nM
IC50 [2]: 2840 nM
IC50 [3]: 9980 nM
IC50 (BA/F3 (insSVD) cells): 9980 nM

CC#CC(=O)N(C)CCOc1cnccc1-c1[nH]c2cccnc2c1-c1ccccc1 [Example 28, N-methyl-N-(2-{[4-(3-phenyl-1H-pyrrolo[3,2-b]pyridin-2-yl)pyridin-3-yl]oxy}ethyl)but-2-ynamide]
IC50 [1]: > 20000 nM
IC50 [2]: 6500 nM
IC50 [3]: 9980 nM
IC50 (BA/F3 (insSVD) cells): 9980 nM

C=CC(=O)N(C)CCOc1cnccc1-c1[nH]c2cccnc2c1-c1ccc(Cl)c(CC)c1 [Example 20, N-[2-({4-[3-(4-chloro-3-ethylphenyl)-1H-pyrrolo[3,2-b]pyridin-2-yl]pyridin-3-yl}oxy)ethyl]-N-methylprop-2-enamide]
IC50 [1]: 779 nM
IC50 [2]: 365 nM
IC50 [3]: 8990 nM
IC50 (BA/F3 (insSVD) cells): 4650 nM
